US20220273590A1, “COMPOUNDS FOR PREVENTION AND TREATMENT OF POST-OPERATIVE COGNITIVE DYSFUNCTION” (ABREXA PHARMACEUTICALS, INC., priority 2019, published 2022)

Assay: Body weight and food intake in the POCD study
Format: in vivo, Wistar rats
Text: A total of 60 male Wistar rats (Wu-Wistar, Envigo, The Netherlands) were studied in 5 cohorts. For that, rats were ordered in 5 groups of different weight classes (220-280 g) to ensure that each group would be around 350 g at the time of surgery. Rats arrived at the facility at least 2 weeks before start of the experiments, and were put on reversed light:dark cycle 12:12 with the lights out at 09:00 am. Rats were housed in groups of 2-3 in standard cages under controlled conditions (temperature of 20+/−2 degrees and humidity of 50% +/−10%). The rats were fed with water and Teklad (Envigo, 2018) chow food ad libitum. After surgery, rats were housed individually. Approval of all experiments was given by the applicable animal and welfare committee of the Netherlands.
One week before surgery, chronic treatment J147 treatment started and continued until the end of the experiment. The day of surgery, rats for acute treatment received their J147 (4-5 hours before surgery) by gavage, while the designated control rats received vehicle gavage. Rats were subjected to abdominal surgery, and allowed to recover. After that rats were housed individually. Non-surgery control were placed in individual cages at the same time. Blood samples were collected from the jugular vein catheter at the time of surgery (plasma levels of J147) and at 1, 6 and 24 hours after surgery (plasma inflammatory markers). The first week post-surgery, rats were weighed daily and food intake was measured. Day 7-12 post-surgery rats were subjected to behavioral testing regarding general exploratory behavior and cognitive performance. On Day 14 rats were sacrificed, blood samples were collected from cardiac puncture, CSF was collected, and brain tissue was collected and processed for immunohistochemistry or molecular analyses.
For chronic oral treatment, J147 was added to the food (Teklad 2018, Envigo) at a concentration of 500 mg/kg. J147 was provided by Abrexa and Envigo prepared the food. […] After surgery food intake was measured daily during the last hour of the light phase. […]

## COc1cccc(/C=N/N(C(=O)C(F)(F)F)c2ccc(C)cc2C)c1 [J147]
Chronic J147 500 mg/kg food, week before surgery, control fed rats 33.5±3.0 g
  body weight gained during first week on the J147 diet: 32.0 ± 1.8 g
Chronic J147 diet, individual housing, surgery control food 20±1 g
  average food eaten during the first 10 days after surgery: 20 ± 1 g
Chronically treated rats (J147 500 mg/kg food)
  body weight loss after surgery: lost significantly less body weight after surgery
